System: SARS-CoV-2
Test: microbe, parasite or virus in culture
Details: Severe acute respiratory syndrome coronavirus 2, Vero C1008, 48 h

Row | SMILES | IC50 | IC50 (read-out: pIC50 (converted))
1 | CC(=O)[C@@]1(O)CC[C@H]2[C@@H]3CCC4=CC(=O)CC[C@]4(C)[C@H]3CC[C@@]21C [HYDROXYPROGESTERONE] | > 20 µM | > 20 µM
2 | NC(=O)NO [HYDROXYUREA] | > 20 µM | > 20 µM
3 | OCCOCCN1CCN(C(c2ccccc2)c2ccc(Cl)cc2)CC1 (stereo unspecified) [HYDROXYZINE] | > 20 µM | > 20 µM
4 | Cc1cc(=O)oc2cc(O)ccc12 [HYMECROMONE] | > 20 µM | > 20 µM
5 | O=c1[nH]cnc2nc[nH]c12 [HYPOXANTHINE] | > 20 µM | > 20 µM
6 | CNC(=O)[C@H]1O[C@@H](n2cnc3c(NCc4cccc(I)c4)ncnc32)[C@H](O)[C@@H]1O [IB-MECA] | > 20 µM | > 20 µM
7 | Nc1nc(=O)n([C@H]2C[C@H](O)[C@@H](CO)O2)cc1I [IBACITABINE] | > 20 µM | > 20 µM
8 | O=C1CC[C@H](N2Cc3c(OCc4ccc(CN5CCOCC5)cc4)cccc3C2=O)C(=O)N1 [IBERDOMIDE] | > 20 µM | > 20 µM
9 | CNCCc1ccc(OC(=O)C(C)C)c(OC(=O)C(C)C)c1 [IBOPAMINE] | > 20 µM | > 20 µM
10 | CCOP(=O)(Cc1ccc(C(=O)Nc2ccc(Br)cc2C#N)cc1)OCC [IBROLIPIM] | > 20 µM | > 20 µM
11 | CC(C)C(=O)c1c(C(C)C)nn2ccccc12 [IBUDILAST] | > 20 µM | > 20 µM
12 | CC(C)Cc1ccc(CC(=O)O)cc1 [IBUFENAC] | > 20 µM | > 20 µM
13 | CC(C)Cc1ccc(C(C)C(=O)O)cc1 (stereo unspecified) [IBUPROFEN] | > 20 µM | > 20 µM
14 | CC(C)(N)C(=O)N[C@H](COCc1ccccc1)C(=O)N1CCC2(CC1)CN(S(C)(=O)=O)c1ccccc12 [IBUTAMOREN] | > 20 µM | > 20 µM
15 | CCCCCCCN(CC)CCCC(O)c1ccc(NS(C)(=O)=O)cc1 (stereo unspecified) [IBUTILIDE] | > 20 µM | > 20 µM
16 | C#Cc1cccc(Nc2ncnc3cc4c(cc23)OCCOCCOCCO4)c1 [ICOTINIB] | > 20 µM | > 20 µM
17 | COc1cc(C(=O)O)ccc1NC(=O)[C@@H]1N[C@@H](CC(C)(C)C)[C@](C#N)(c2ccc(Cl)cc2F)[C@H]1c1cccc(Cl)c1F [IDASANUTLIN] | > 20 µM | > 20 µM
18 | c1ccc2c(c1)OCC(C1=NCCN1)O2 (stereo unspecified) [IDAZOXAN] | > 20 µM | > 20 µM
19 | COC1=C(OC)C(=O)C(CCCCCCCCCCO)=C(C)C1=O [IDEBENONE] | > 20 µM | > 20 µM
20 | CC[C@H](Nc1ncnc2[nH]cnc12)c1nc2cccc(F)c2c(=O)n1-c1ccccc1 [IDELALISIB] | > 20 µM | > 20 µM
21 | O=C1C2CC3CC1CC(O)(C3)C2 [IDRAMANTONE] | > 20 µM | > 20 µM

Row | SMILES | IC50 | IC50 (read-out: pIC50 (converted))
22 | CC[C@H]1OC(=O)[C@H](C)[C@@H](O[C@H]2C[C@@](C)(OC)[C@@H](O)[C@H](C)O2)[C@H](C)[C@@H](O[C@@H]2O[C@H](C)C[C@H](N(C)C(C)C)[C@H]2O)[C@@]2(C)CC(C)=C(O2)[C@H](C)[C@@H](O)[C@]1(C)O [IDREMCINAL] | > 20 µM | > 20 µM
23 | CC(C(O)c1ccc(O)cc1)N1CCC(Cc2ccccc2)CC1 (stereo unspecified) [IFENPRODIL] | > 20 µM | > 20 µM
24 | O=P1(NCCCl)OCCCN1CCCl (stereo unspecified) [IFOSFAMIDE] | > 20 µM | > 20 µM
25 | CCC(C/C=C/c1ccccc1)(c1ccccc1)N(C)CC1CC1 (stereo unspecified) [IGMESINE] | > 20 µM | > 20 µM
26 | CS(=O)(=O)Nc1cc2occ(NC=O)c(=O)c2cc1Oc1ccccc1 [IGURATIMOD] | > 20 µM | > 20 µM
27 | COc1ccnc(C[S+]([O-])c2nc3cc(-n4cccc4)ccc3[nH]2)c1C (stereo unspecified) [ILAPRAZOLE] | > 20 µM | > 20 µM
28 | O=C(/C=C/c1ccc2c(c1)OCO2)N1CCCCC1 [ILEPCIMIDE] | > 20 µM | > 20 µM
29 | COc1cc(C(C)=O)ccc1OCCCN1CCC(c2noc3cc(F)ccc23)CC1 [ILOPERIDONE] | > 20 µM | > 20 µM
30 | c1ccc(C2CN=C3NCCN32)cc1 (stereo unspecified) [IMAFEN] | > 20 µM | > 20 µM
31 | O=C1CCC(c2ccc(-n3ccnc3)cc2)=NN1 [IMAZODAN] | > 20 µM | > 20 µM
32 | N=C1NC(=O)N2CC12 (stereo unspecified) [IMEXON] | > 20 µM | > 20 µM
33 | O=[N+]([O-])/N=C1\NCCN1Cc1ccc(Cl)nc1 [IMIDACLOPRID] | > 20 µM | > 20 µM
34 | O=C(O)Cc1c[nH]cn1 [IMIDAZOLE ACETIC ACID] | > 20 µM | > 20 µM
35 | O=C(Nc1cccc(C2=NCCN2)c1)Nc1cccc(C2=NCCN2)c1 [IMIDOCARB] | > 20 µM | > 20 µM
36 | CCn1ccnc1CC1COc2ccccc2O1 (stereo unspecified) [IMILOXAN] | > 20 µM | > 20 µM
37 | C[C@@H](O)[C@H]1C(=O)N2C(C(=O)O)=C(SCCNC=N)C[C@H]12 [IMIPENEM ANHYDROUS] | > 20 µM | > 20 µM
38 | CN(C)CCCN1c2ccccc2CCc2ccccc21 [IMIPRAMINE] | > 20 µM | > 20 µM
39 | CC(C)Cn1cnc2c(N)nc3ccccc3c21 [IMIQUIMOD] | > 20 µM | > 20 µM
40 | Nc1cc(-c2ccncc2)c[nH]c1=O [INAMRINONE] | > 20 µM | > 20 µM
41 | CO[C@@H]1[C@H](OP(=O)(OC[C@H]2O[C@@H](n3cnc4c(N)ncnc43)C[C@@H]2O)SCOC(=O)OC(C)C)[C@@H](CO)O[C@H]1n1ccc(=O)[nH]c1=O (stereo partly specified) [INARIGIVIR SOPROXIL] | > 20 µM | > 20 µM
42 | CC1(c2ccccc2)Cc2cc(OCC(=O)O)c(Cl)c(Cl)c2C1=O (stereo unspecified) [INDACRINONE] | > 20 µM | > 20 µM

Row | SMILES | IC50 | IC50 (read-out: pIC50 (converted))
43 | c1ccc2c(CCC3CCNCC3)c[nH]c2c1 [INDALPINE] | > 20 µM | > 20 µM
44 | CC1Cc2ccccc2N1NC(=O)c1ccc(Cl)c(S(N)(=O)=O)c1 (stereo unspecified) [INDAPAMIDE] | > 20 µM | > 20 µM
45 | c1ccc2[nH]ncc2c1 [INDAZOLE] | > 20 µM | > 20 µM
46 | CC(C)NCCCC1(C(N)=O)c2ccccc2-c2ccccc21 [INDECAINIDE] | > 20 µM | > 20 µM
47 | O=C1Nc2ccccc2/C1=C1/Nc2ccccc2C1=O [INDIRUBIN] | > 20 µM | > 20 µM
48 | CC1(C)C(=O)Nc2ccc(C3=NNC(=O)CC3)cc21 [INDOLIDAN] | > 20 µM | > 20 µM
49 | O=C(O)CCc1c[nH]c2ccccc12 [INDOLYLPROPIONIC ACID] | > 20 µM | > 20 µM
50 | CC(C(=O)O)c1ccc(N2Cc3ccccc3C2=O)cc1 (stereo unspecified) [INDOPROFEN] | > 20 µM | > 20 µM
51 | O=C(NC1CCN(CCc2c[nH]c3ccccc23)CC1)c1ccccc1 [INDORAMIN] | > 20 µM | > 20 µM
52 | CCN1CCN(c2ccc(Nc3cc(N(C)C(=O)Nc4c(Cl)c(OC)cc(OC)c4Cl)ncn3)cc2)CC1 [INFIGRATINIB] | > 20 µM | > 20 µM
53 | NC(=O)c1ccc(I)c([N+](=O)[O-])c1 [INIPARIB] | > 20 µM | > 20 µM
54 | O=c1[nH]cnc2c1ncn2[C@@H]1O[C@H](CO)[C@@H](O)[C@H]1O [INOSINE] | > 20 µM | > 20 µM
55 | O[C@H]1[C@H](O)[C@@H](O)[C@H](O)[C@@H](O)[C@H]1O [INOSITOL] | > 20 µM | > 20 µM
56 | O=S(=O)(c1ccccc1)c1cnc2c(N3CCNCC3)cccc2c1 [INTEPIRDINE] | > 20 µM | > 20 µM
57 | O=C(c1ccc(Cl)cc1)n1cc(Cc2nnn[nH]2)c2ccccc21 [INTRAZOLE] | > 20 µM | > 20 µM
58 | CN(C)CC#CC=C1c2ccccc2C=Cc2ccccc21 [INTRIPTYLINE] | > 20 µM | > 20 µM
59 | N=C(N)NCc1cccc(I)c1 [IOBENGUANE] | > 20 µM | > 20 µM
60 | CC(=O)N(CC(C)C(=O)O)c1c(I)cc(I)c(N)c1I (stereo unspecified) [IOCETAMIC ACID] | > 20 µM | > 20 µM
61 | O=C(CCCCC(=O)Nc1c(I)cc(I)c(C(=O)O)c1I)Nc1c(I)cc(I)c(C(=O)O)c1I [IODIPAMIDE] | > 20 µM | > 20 µM
62 | CC(=O)N(CC(O)CN(C(C)=O)c1c(I)c(C(=O)NCC(O)CO)c(I)c(C(=O)NCC(O)CO)c1I)c1c(I)c(C(=O)NCC(O)CO)c(I)c(C(=O)NCC(O)CO)c1I (stereo unspecified) [IODIXANOL] | > 20 µM | > 20 µM
63 | Oc1c(I)cc(I)c2cccnc12 [IODOQUINOL] | > 20 µM | > 20 µM

Source: ChEMBL document CHEMBL4651402, “Screening of ~5500 FDA-approved drugs and clinical candidates for anti-SARS-CoV-2 activity” (2021)
